The values that follow are results of earlier work, collected in US4033823A, “Process to produce lysocellin” (Hoffmann-La Roche Inc., priority 1976, dated 1977).

Bounds are passed on as bounds.

In data set [1] the test system is Staphylococcus aureus FDA 209P.
The subject of data set [2] is Antibiotic resistant S. aureus. The conditions noted are these: S. aureus resistant to streptomycin, erythromycin, chloramphenicol and penicillin.
For data set [3], the system named is Bacillus subtilis.
Data set [4] deals with Antibiotic resistant E. coli. The conditions noted are these: E. coli resistant to streptomycin, chloramphenicol, kanamycin, tetracyclin and sulfonamide.
Data set [5] concerns antibiotic resistant Staphylococcus aureus.
A further data set relates to fungi. The note with it: some fungi.
Data set [6] deals with Bacillus subtilis. The note with it: Bacillus subtilis grown on liquid medium.
Another data set relates to staphylococcus aureus. The note with it: intraperitoneal administration.
For data set [7] the following is noted: mice, intraperitoneally.
The conditions of data set [8]: 66% dimethylformamide.

On to Lysocellin, for which the “Minimum inhibitory Concentration” value in [1] was 10 µg/mL; in [2], 4 µg/mL; with Sarcina lutea, 10 µg/mL; in the data set on Bacillus subtilis [3], 10 µg/mL; in the data set on Mycobacterium smegmatis, 20 µg/mL; with Escherichia coli, > 100 µg/mL. Also, the “Minimum inhibitory Concentration” value in data set [4] is > 100 µg/mL; in the data set on Shigella dysenteriae it was > 100 µg/mL; in the data set with Salmonella typhimurium, > 100 µg/mL; in the data set with Pseudomonas aeruginosa it was > 100 µg/mL; in the data set with Botrytis cinerea, 50 µg/mL; with Helminthosporium oryzae, 50 µg/mL. Also, the “Minimum inhibitory Concentration” value in the data set on Fusarium oxysporum and in the data set with Alternaria kikuchiana was 100 µg/mL throughout. Besides, the Antimicrobial activity result in the data set on gram-positive bacteria is given as “active”; in data set [5], “active”; in the data set with fungi it was “active against some fungi”; in the data set on gram-negative bacteria, “not active”. The bacterial lysis entry in the data set with Bacillus subtilis [6] was “caused bacterial lysis”. In addition, in the data set on staphylococcus aureus, the “activity against staphylococcus aureus infection in mice” value was “inactive”. The LD50 entry in data set [7] was “about 70 mg/kg”. Also, the “pKa'” value in data set [8] is 6.6.
